Source: patent US10390536B2, “Methods, compounds and compositions for repelling insects and/or arachnids” (National Center for Scientific Research “Demokritos”, priority 2013, dated 2019)

Assays:
A. gambiae females = test: wind tunnel spatial repellence (landings on treated netting downwind of dirty sock); format: in vivo, Anopheles gambiae; conditions: for inhibition of landing on treated netting (in words): 38 or 57 μg DEET/cm^2, 38 or 76 μg carvacrol/cm^2; for Mean Landings/5 minutes: control 24.6
Protocol: Carvacrol was tested in a wind tunnel (60×60×120 cm) in order to test for inhibition of the attractiveness of dirty socks, which are otherwise very attractive to the malaria mosquito A. gambiae. Experiments were conducted at 25° C. and 80% relative humidity at a wind speed of 0.5 m·s^−1 during the last 6 hours of scotophase. Dim fluorescent light (4 Lux) was provided from above (Philips TLD, 32 Watts at 36 KHz). A tube (55 mm inner diameter) was covered at its downwind end with mosquito netting which was treated with 38 or 57 μg DEET/cm^2 or 38 or 76 μg carvacrol/cm^2 or the solvent (ethanol) alone (control). Groups of 30 A. gambiae females were released from a release cage at the downwind end of the wind tunnel and their landing behaviour on the mosquito netting was recorded with a high definition video camera. The number of mosquitoes landing on the mosquito netting over 5 minutes was counted.

[1] = test system: sand fly Lutzomyia longipalpis; test: warm body repellence assay with sand flies; format: in vivo; conditions: for Median of landings: 2 minutes, control 48
Protocol: To test the effects of repellent compounds or compositions disclosed herein on other blood-feeding arthropods, a warm body repellence assay (Krober et. al. (2010). An In Vitro Assay for Testing Mosquito Repellents Employing a Warm Body and Carbon Dioxide as a Behavioral Activator. Journal of the American Mosquito Control Association 26(4): 381-386] was conducted using the sand fly Lutzomyia longipalpis (Diptera: Psychodidae), the principal vector of Leishmania (or leismaniasis) in the Americas.
[…] Fifty L. longipalpis sandflies (male:female ratio 1:1) of 3-7 days old were tested during the scotophase under conditions described for A. gambiae in Example 6. The test cages were lined with filter paper. Reduction in the number of landings by L. longipalpis sand fly females on a warm body treated with different test products compared to the control with solvent (ethanol p.a.) alone was used to evaluate repellence. Tests were conducted in complete darkness using IR LEDs to illuminate the warm body. Landings counted during 2 minutes were normalized by experimental day, cage, and number of females by a mixed linear model before testing for differences.

[2] = test system: Ixodes ricinus (Ixodidae) nymphs; test: tick repellence assay on warm glass plate; format: in vivo; conditions: 10 μg/cm^2; nymphs dropped off or walked down the warm glass plate; control 8
Protocol: The products were tested at a dose of 10 μg/cm^2 on Ixodes ricinus (Ixodidae) nymphs according the protocol described in Krober, T. et al. (2013). A standardised in vivo and in vitro test method for evaluating tick repellents. Pesticide Biochemistry and Physiology 107: 160-168] with the following modifications: The test products (dissolved in ethanol) were allowed to evaporate for 40 s (as in the warm body test with mosquitoes) and the warm glass plates were used up to 250 s after application of the test products for the repellence assay. Four repetitions were made with carvacrol with 3, 4, 4 and 5 nymphs, i.e. with a total of 16 I. ricinus nymphs, of which in total 75% (12) were affected in that they either dropped off or walked down the warm glass plate.
The mixture of carvacrol+cumin alcohol+butyl-cinnamate was tested in two repetitions with 6 and 7 nymphs, i.e. with a total of 13 I. ricinus nymphs, of which 100% were affected in that they either dropped off or walked down the warm glass plate. Of 12 Ixodes ricinus tested in the control (ethanol only) only one tick (8%) was affected (Table 8).

[3] = test system: female A. gambiae antennae; test: GC-coupled electroantennogram (GC-EAG) recording; parameters: species or system Anopheles gambiae; conditions: compounds eluting from GC of essential oils
From the text: Electrophysiological recordings from whole mosquito antenna: Coupling EAG recordings from an A. gambiae antenna to the effluent of a high-resolution gas chromatographic (GC) column permitted the determination of the elution profiles of biologically active components of essential oils showing repellence. Recordings were made from to 4-9 day-old female mosquitoes. The head was excised at the occipital opening and placed on the reference glass electrode containing Hayes mosquito Ringer [Hayes (1953). Determination of a physiological saline for Aedes aegypti (L.). J Econ Entomol 46: 624-627] mounted in a humidified air-stream (90-98% RH; Guerin and Visser (1980). Electroantennogram Responses of the Carrot Fly, Psila rosae, to Volatile Plant Components. Physiological Entomology 5(2): 111-119] and its antenna exposed to compounds eluting from the GC column (Biessamann et al. (2010). The Anopheles gambiae odorant binding protein 1 (AgamOBP1) mediates indole recognition in the antennae of female mosquitoes. PLoS One 5(3): e9471]. The EAG response was recorded via a glass electrode filled with Kaissling sensillum lymph Ringer [Kaissling (1995). Single unit and electroantennogram recordings in insect olfactory organs. In Experimental Cell Biology of Taste and Olfaction. Current Techniques and Protocols, Spielman AlaB, J. G. (ed), 361-386. Boca Raton, Fla.: CRC Press] brought into contact with the terminal antennal segment whose tip was cut off. Only antennae showing an EAG response at least double the noise level to a 1 ml puff of air over 1 μg geranylacetone in a 5 ml stimulus syringe were used for recording EAG responses to the essential oils.
To conduct a GC-EAG analysis, about 2 μg of an essential oil was injected in 1-3 μL of dichloromethane (DCM) onto an apolar capillary column (95% dimethyl polysiloxan with 5% diphenyl polysiloxan, 15 m long, 0.25 mm i.d., 0.10 μm film thickness; BGB Analytik, Switzerland) installed in a 5300 Carlo Erba Instruments chromatograph. Hydrogen was used as carrier gas with the oven held at 40° C. for 3 minutes then heated up 25° C./min to 230° C. and held at the final temperature for 15 min. The column effluent was split (50:50) between the flame ionization detector (FID) of the chromatograph and the mosquito antennal preparation. The EAG signal was fed into an AC/DC amplifier (×100) via a high impedance preamplifier (×10), recorded on the hard disk of a PC via a 16-bit analogue-digital IDAC4 interface (Syntech, Netherlands) and monitored simultaneously with an oscilloscope (Tektronix 5103, USA). Kovats retention indices (KIs) were calculated for the EAG-active compounds present in the extracts and fractions. FIG. 1 illustrates the results obtained using the GC-EAG analysis. […]

[4] = netting treated with 38 μg/cm^2

| SMILES | inhibition of landing on treated netting (in words) (A. gambiae females) | Mean Landings/5 minutes (A. gambiae females; [4]) [Landings/5 minutes] | Mean Landings/5 minutes (A. gambiae females; netting treated with 57 μg/cm^2 (300 nmol/cm^2)) [Landings/5 minutes] | Median of landings ([1]; 20 nmol/cm^2) | Median of landings ([1]; 200 nmol/cm^2) | Mean Landings/5 minutes (A. gambiae females; netting treated with 76 μg/cm^2 (500 nmol/cm^2)) [Landings/5 minutes] | repellence of sand flies from the warm body (in words) ([1]; 20 and 200 nmol/cm^2) | % affected ticks [2] [%] | EAG response of antenna [3] |
| --- | --- | --- | --- | --- | --- | --- | --- | --- | --- |
| CCN(CC)C(=O)c1cccc(C)c1 [DEET, N,N-diethyl-3-methylbenzamide, reference compound] | clearly inhibited | 0 | 0 | 6 | 5 |  |  |  |  |
| Cc1ccc(C(C)C)cc1O [carvacrol, 5-isopropyl-2-methylphenol] | clearly inhibited | 0 |  | 23 | 1 | 0 | as effective as DEET at 20 nmol/cm^2 | 75 | capable of triggering EAG responses |
| CC(C)c1ccc(CO)cc1 [cumin alcohol] |  |  |  |  |  |  |  |  | capable of triggering EAG responses |
